Measured values published in PMC7481357, “N-terminal Myristoylation Enhanced the Antimicrobial Activity of Antimicrobial Peptide PMAP-36PW” (Frontiers in Cellular and Infection Microbiology, 2020).
Residues, ends and D or L forms follow the SMILES beside them. *: point of attachment. Myristoyl = CCCCCCCCCCCCCC(=O)*

Key:
Assay in all cases: Inhibition zone assay (disk diffusion)
Set-up in all cases: key: +, means the peptide has antibacterial activity
Settings in all cases: disk 10 μg peptide, 18 h at 37°C, * P < 0.05, ** P < 0.01 vs PMAP-36PW
[1] = system: P. aeruginosa GIM 1.551; format: cell-based, Pseudomonas aeruginosa
Experimental: (§1) The inhibition zone assay was performed through the disk diffusion to evaluate the antimicrobial activity of Myr-36PW in vitro (Dunne et al., [2017]). The four above-mentioned bacterial strains were used as experimental strains, with L. monocytogenes CICC 21634 cultured in BHI medium, and P. aeruginosa GIM 1.551 cultured in TSB medium. The bacterial cells were cultured for 12 h at 37°C in the appropriate medium, and the bacterial cell suspension was spread on LB agar. The disks containing 10 μg of peptides (1 μg/μL) were attached to the solid medium and incubated at 37°C for 18 h. Finally the diameter of the inhibition zone was measured.

[2] = system: S. typhimurium SL 1344; format: cell-based, Salmonella typhimurium
Experimental: as §1

[3] = system: S. aureus ATCC 25923; format: cell-based, Staphylococcus aureus
Experimental: as §1

CCCCCCCCCCCCCC(=O)NCC(=O)NCC(=O)N[C@@H](CCCNC(=N)N)C(=O)N[C@@H](Cc1ccccc1)C(=O)N[C@@H](CCCNC(=N)N)C(=O)N[C@@H](CCCNC(=N)N)C(=O)N[C@@H](CC(C)C)C(=O)N[C@@H](CCCNC(=N)N)C(=O)N[C@@H](CCCCN)C(=O)N[C@@H](CCCCN)C(=O)N[C@H](C(=O)N[C@@H](CCCNC(=N)N)C(=O)N[C@@H](CCCCN)C(=O)N[C@@H](CCCNC(=N)N)C(=O)N[C@@H](CC(C)C)C(=O)N[C@@H](CCCCN)C(=O)N[C@@H](CCCCN)C(=O)N[C@H](C(=O)NCC(=O)N[C@@H](CCCCN)C(=O)N[C@H](C(=O)N[C@@H](CC(C)C)C(=O)N[C@@H](CCCCN)C(=O)N[C@@H](Cc1c[nH]c2ccccc12)C(=O)N[C@H](C(=O)N[C@@H](Cc1c[nH]c2ccccc12)C(=O)N[C@@H](Cc1c[nH]c2ccccc12)C(=O)N[C@H](C(=O)N[C@H](C(=O)NCC(=O)N[C@@H](CO)C(=O)N[C@H](C(=O)N1CCC[C@H]1C(=O)N[C@@H](CC(C)C)C(=O)NCC(=O)N[C@@H](CS)C(=O)NCC(=O)O)[C@@H](C)CC)C(C)C)[C@@H](C)CC)[C@@H](C)CC)C(C)C)[C@@H](C)CC)[C@@H](C)O [Myr-36PW] (Myristoyl-GGRFRRLRKKTRKRLKKIGKVLKWIWWIVGSIPLGCG-OH; C-terminus assumed)
In vitro antibacterial activity (disk diffusion) [1]: +** | In vitro antibacterial activity (disk diffusion) [2]: +* | In vitro antibacterial activity (disk diffusion) [3]: +**
